The numbers were not newly measured in patent publication US20200121616A1, “COMPOSITIONS COMPRISING CANNABIDIOL AND HYALURONIC ACID FOR TREATING INFLAMMATORY JOINT DISEASES” (BOL PHARMA LTD., priority 2015, published 2020), which cites them from elsewhere.

Take Hyaluronic acid: the pKa entry is “about 2.8”.
